Experimental data from patent US20210330611A1, “THERAPY FOR NEUROLOGICAL DISEASES/DISORDERS” (priority 2020, published 2021).
Like-named read-outs stand apart in the source and are kept apart here.

What was measured:
primary rat microglia [1] = test: Cell toxicity (dead cells, size <150 μm2) in coated fibrin (cFib) assay; conditions: for IC50: read-out: Cell Toxicity IC50 (uM) [cFib assay];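 as to Fibrin % cell toxicity: share of dead cells sized under 150 µm2 at 10 µM in fibrin-stimulated microglia HTS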
[2] = test system: LPS-induced microglia activation; test: Image-based assay of LPS-induced microglia activation (HTS and dose response); type: cell-based, rat; conditions: for inhibition at 10 µM: Rattus norvegicus, Microglia, read-out: LPS % inhibition
[3] = test system: fibrin- and LPS-induced microglia activation; test: cells; type: cell-based, rat
primary rat microglia [4] = test: Cell toxicity (dead cells, size <150 μm2) in LPS assay; conditions: for IC50: read-out: Cell Toxicity IC50 (uM) [LPS assay]
[5] = test system: fibrin-induced microglia activation; test: Image-based assay of fibrin-induced microglia activation (HTS and dose response); type: cell-based, rat; conditions: for inhibition at 10 µM: Rattus norvegicus, Microglia, read-out: Fibrin % inhibition
[6] = primary microglia HTS, 10 μM, fibrin assay, cell size <150 μm^2 as marker of toxicity
[7] = primary microglia HTS, 10 μM, LPS-stimulated, cell size >800 μm^2 as marker of activation
[8] = HTS of 1907 compounds, quadrant by fibrin and LPS inhibition
[9] = primary microglia HTS, 10 μM, LPS assay, cell size <150 μm^2 as marker of toxicity
[10] = primary microglia HTS, 10 μM, fibrin-stimulated, cell size >800 μm^2 as marker of activation
[11] = primary HTS, 10 μM, fibrin assay, dead cells size <150 μm2
[12] = primary HTS, 10 μM, LPS-stimulated primary microglia
[13] = primary HTS, 10 μM, LPS assay, dead cells size <150 μm2
[14] = primary HTS, 10 μM, fibrin-stimulated primary microglia
[15] = primary microglia HTS, fibrin stimulation, decreased size (<150 μm^2) as marker of toxicity
[16] = quadrant by fibrin and LPS inhibition in HTS of 1907 compounds
[17] = primary microglia HTS, LPS stimulation, decreased size (<150 μm^2) as marker of toxicity
[18] = primary microglia HTS, fibrin stimulation, increased cell size (>800 μm^2) as marker of activation
[19] = primary microglia HTS, fibrin stimulation, toxicity = cell size <150 μm2
[20] = 48 h, primary microglia HTS, LPS stimulation, activation = cell size >800 μm2
[21] = primary microglia HTS, LPS stimulation, toxicity = cell size <150 μm2
[22] = primary microglia HTS, fibrin stimulation, activation = cell size >800 μm2
[23] = 48 h, primary microglia HTS, LPS stimulation, increased cell size (>800 μm^2) as marker of activation

CC(=O)N(c1onc(C)c1C)S(=O)(=O)c1ccc(N)cc1 [Sulfisoxazole Acetyl]
Fibrin % cell toxicity (primary rat microglia [1]; [6]): 1% | inhibition at 10 µM [2, 7]: 17% | Quadrant (FIG. 5b) [3, 8]: Q4 | LPS % cell toxicity (primary rat microglia [4]; [9]): 1% | inhibition at 10 µM [5, 10]: -3%

CC(=O)OCC1=C(C(=O)O)N2C(=O)[C@@H](NC(=O)CSc3ccncc3)[C@H]2SC1 [Cefapirin]
Fibrin % cell toxicity (primary rat microglia [1]; [11]): 0% | inhibition at 10 µM [2, 12]: 7% | Quadrant (FIG. 5b) ([3]; primary HTS, 10 μM): Q4 | LPS % cell toxicity (primary rat microglia [4]; [13]): 0% | inhibition at 10 µM [5, 14]: -26%

CCCOc1ccc2[nH]c(NC(=O)OC)nc2c1 [Oxybendazole, reference compound]
Fibrin % cell toxicity (primary rat microglia [1]; [15]): 2% | IC50 (primary rat microglia [1]; Table 3): > 20 µM | IC50 (primary rat microglia [1]; cFib assay): > 20 µM | IC50 ([2]; LPS-induced microglia activation, dose response, read-out: LPS IC50 (uM) (Suppl. Table 7)): 12 µM | IC50 ([2]; Table 1, dose response 0.001-20 μM, triplicates, primary rat microglia, 48 h, read-out: LPS IC50): 12 µM | IC50 ([2]; Table 3, read-out: LPS IC50 (uM) (Suppl. Table 7)): 12 µM | IC50 ([2]; dose response, LPS-induced microglia activation, read-out: LPS IC50): 12 µM | LPS % inhibition ([2]; primary microglia HTS, LPS stimulation, increased cell size (>800 μm^2) as marker of activation): 15% | Hit ([3]; HTS hit classification): HIT (Hits were defined as molecules that exhibited greater than 50% inhibition of either fibrin or LPS activation) | Quadrant (FIG. 5b) [3, 8]: Q3 | Quadrant (FIG. 5b) ([3]; Table 1, screen at 10 μM): Q3 | Cherry-picked Hit (Suppl. Table 7) ([3]; Table 3): HIT (Hits were defined as molecules that exhibited greater than 50% inhibition of either fibrin or LPS activation) | Quadrant (FIG. 5b) ([3]; Table 3, screen at 10 μM): Q3 | Cherry-picked Hit (Suppl. Table 7) ([3]; hit classification in microglia HTS): HIT (Hits were defined as molecules that exhibited greater than 50% inhibition of either fibrin or LPS activation) | Quadrant (FIG. 5b) [3, 16]: Q3 | LPS % cell toxicity (primary rat microglia [4]; [17]): 1% | IC50 (primary rat microglia [4]; LPS assay): > 20 µM | IC50 (primary rat microglia [4]; Table 3): > 20 µM | Fibrin Selectivity [5]: 2 | Fibrin Selectivity (LOG10) [5]: 0.22 | IC50 ([5]; Table 1, dose response 0.001-20 μM, triplicates, primary rat microglia, 48 h, read-out: Fibrin IC50): 7 µM | IC50 ([5]; Table 3, read-out: Fibrin IC50 (uM) (Suppl. Table 7)): 7 µM | IC50 ([5]; dose response, fibrin-induced microglia activation, read-out: Fibrin IC50): 7 µM | IC50 ([5]; fibrin-induced microglia activation, dose response, read-out: Fibrin IC50 (uM) (Suppl. Table 7)): 7 µM | Fibrin % inhibition [5, 18]: 78%

CC(C(=O)O)c1cccc(Oc2ccccc2)c1 (stereo not drawn) [Fenoprofen]
Fibrin % cell toxicity (primary rat microglia [1]; [19]): 0% | inhibition at 10 µM [2, 20]: -4% | Quadrant (FIG. 5b) [3, 16]: Q4 | LPS % cell toxicity (primary rat microglia [4]; [21]): 0% | inhibition at 10 µM [5, 22]: -7%

Nc1ccc(S(=O)(=O)Nc2ccnn2-c2ccccc2)cc1 [Sulfaphenazole]
Fibrin % cell toxicity (primary rat microglia [1]; [6]): 1% | inhibition at 10 µM [2, 7]: 14% | Quadrant (FIG. 5b) [3, 8]: Q4 | LPS % cell toxicity (primary rat microglia [4]; [9]): 0% | inhibition at 10 µM [5, 10]: -4%

FC(F)(F)COCC(F)(F)F [Flurothyl]
Fibrin % cell toxicity (primary rat microglia [1]; [19]): 1% | LPS % inhibition ([2]; primary microglia HTS, LPS stimulation, activation = cell size >800 μm2): 28% | Quadrant (FIG. 5b) [3, 16]: Q4 | LPS % cell toxicity (primary rat microglia [4]; [21]): 0% | Fibrin % inhibition [5, 22]: 0%

CC(C)(C)NC[C@H](O)COc1nsnc1N1CCOCC1 [Timolol]
Fibrin % cell toxicity (primary rat microglia [1]; [6]): 1% | LPS % inhibition [2, 7]: −7% | Quadrant (FIG. 5b) [3, 8]: Q4 | LPS % cell toxicity (primary rat microglia [4]; [9]): 0% | Fibrin % inhibition [5, 10]: 11%

CN1[C@@H](CC(=O)c2ccccc2)CCC[C@H]1C[C@H](O)c1ccccc1 [Lobeline]
Fibrin % cell toxicity (primary rat microglia [1]; [19]): 1% | inhibition at 10 µM [2, 20]: -5% | Quadrant (FIG. 5b) [3, 16]: Q4 | LPS % cell toxicity (primary rat microglia [4]; [21]): 0% | inhibition at 10 µM [5, 22]: -38%

CC(C)(Oc1ccc(C(=O)c2ccc(Cl)cc2)cc1)C(=O)O [Fenofibric Acid]
Fibrin % cell toxicity (primary rat microglia [1]; [19]): 1% | inhibition at 10 µM [2, 20]: 9% | Quadrant (FIG. 5b) [3, 16]: Q4 | LPS % cell toxicity (primary rat microglia [4]; [21]): 0% | inhibition at 10 µM [5, 22]: 6%

NC(=O)N[C@@H](CCC(=O)O)C(=O)O [Carglumic Acid]
Fibrin % cell toxicity (primary rat microglia [1]; [11]): 1% | inhibition at 10 µM [2, 12]: 6% | Quadrant (FIG. 5b) ([3]; primary HTS, 10 μM): Q4 | LPS % cell toxicity (primary rat microglia [4]; [13]): 0% | inhibition at 10 µM [5, 14]: 1%

CCCC(=O)Nc1ncnc2c1ncn2[C@@H]1O[C@@H]2COP(=O)(O)O[C@H]2[C@H]1OC(=O)CCC [Bucladesine]
Fibrin % cell toxicity (primary rat microglia [1]; [11]): 1% | inhibition at 10 µM [2, 12]: 24% | Quadrant (FIG. 5b) ([3]; primary HTS, 10 μM): Q4 | LPS % cell toxicity (primary rat microglia [4]; [13]): 0% | inhibition at 10 µM [5, 14]: 10%

CC(C)CCCC(C)N (stereo not drawn) [Octodrine]
Fibrin % cell toxicity (primary rat microglia [1]; [15]): 0% | inhibition at 10 µM [2, 23]: -2% | Quadrant (FIG. 5b) [3, 16]: Q4 | LPS % cell toxicity (primary rat microglia [4]; [17]): 0% | inhibition at 10 µM [5, 18]: 2%

CC1=C(C(=O)O)N2C(=O)[C@@H](NC(=O)[C@H](N)c3ccc(O)cc3)[C@H]2SC1 [Cefadroxil]
Fibrin % cell toxicity (primary rat microglia [1]; [11]): 0% | inhibition at 10 µM [2, 12]: 3% | Quadrant (FIG. 5b) ([3]; primary HTS, 10 μM): Q4 | LPS % cell toxicity (primary rat microglia [4]; [13]): 0% | inhibition at 10 µM [5, 14]: 1%

O=C1c2ccccc2C(=O)C1c1ccc(Cl)cc1 [Chlorindione]
Fibrin % cell toxicity (primary rat microglia [1]; [11]): 1% | LPS % inhibition [2, 12]: 10% | Quadrant (FIG. 5b) ([3]; primary HTS, 10 μM): Q4 | LPS % cell toxicity (primary rat microglia [4]; [13]): 0% | Fibrin % inhibition [5, 14]: −7%

CCCCN1CCCC[C@H]1C(=O)Nc1c(C)cccc1C [Levobupivacaine]
Fibrin % cell toxicity (primary rat microglia [1]; [19]): 1% | inhibition at 10 µM [2, 20]: -10% | Quadrant (FIG. 5b) [3, 16]: Q4 | LPS % cell toxicity (primary rat microglia [4]; [21]): 0% | inhibition at 10 µM [5, 22]: 34%

NS(=O)(=O)Cc1noc2ccccc12 [Zonisamide]
Fibrin % cell toxicity (primary rat microglia [1]; [6]): 0% | inhibition at 10 µM [2, 7]: -12% | Quadrant (FIG. 5b) [3, 8]: Q4 | LPS % cell toxicity (primary rat microglia [4]; [9]): 0% | inhibition at 10 µM [5, 10]: -37%

Oc1cc(O)c2c(c1)O[C@H](c1ccc(O)c(O)c1)[C@@H](O)C2 [Cianidanol]
Fibrin % cell toxicity (primary rat microglia [1]; [11]): 0% | inhibition at 10 µM [2, 12]: 7% | Quadrant (FIG. 5b) ([3]; primary HTS, 10 μM): Q4 | LPS % cell toxicity (primary rat microglia [4]; [13]): 0% | inhibition at 10 µM [5, 14]: -19%

NS(=O)(=O)c1ccc(C(=O)O)cc1 [Carzenide]
Fibrin % cell toxicity (primary rat microglia [1]; [11]): 1% | inhibition at 10 µM [2, 12]: 14% | Quadrant (FIG. 5b) ([3]; primary HTS, 10 μM): Q4 | LPS % cell toxicity (primary rat microglia [4]; [13]): 0% | inhibition at 10 µM [5, 14]: -24%

CCCCC(CC)COC(=O)c1ccccc1O (stereo not drawn) [Octisalate]
Fibrin % cell toxicity (primary rat microglia [1]; [15]): 0% | inhibition at 10 µM [2, 23]: 5% | Quadrant (FIG. 5b) [3, 16]: Q4 | LPS % cell toxicity (primary rat microglia [4]; [17]): 0% | inhibition at 10 µM [5, 18]: -17%

CCOC(=O)C1=C(C)NC(C)=C(C(=O)OC)C1c1cccc([N+](=O)[O-])c1 (stereo not drawn) [Nitrendipine]
Fibrin % cell toxicity (primary rat microglia [1]; [15]): 1% | inhibition at 10 µM [2, 23]: 18% | Quadrant (FIG. 5b) [3, 16]: Q4 | LPS % cell toxicity (primary rat microglia [4]; [17]): 0% | inhibition at 10 µM [5, 18]: -12%
